# Laboratory results as given in ChEMBL document CHEMBL3885881, “DrugMatrix”.
# Species on record: Rattus norvegicus
# Assay: DrugMatrix - Regimen: Daily Repeat
# Format: toxicity, organism-based, Sprague-Dawley
# Set-up: regimen Daily Repeat, gender Male, age 6-8 weeks
# Conditions: in vivo, po, route oral GAVAGE, […]; for ABSOLUTE BASOPHIL / ABSOLUTE EOSINOPHIL / ABSOLUTE LYMPHOCYTE / ABSOLUTE MONOCYTE / ABSOLUTE SEGMENTED NEUTROPHIL / BASOPHIL / EOSINOPHIL / ERYTHROCYTE COUNT / HEMATOCRIT / HEMOGLOBIN / LEUKOCYTE COUNT / LYMPHOCYTE / MEAN CORPUSCULAR HEMOGLOBIN / MEAN CORPUSCULAR HEMOGLOBIN CONCENTRATION / MEAN CORPUSCULAR VOLUME / MONOCYTE / NEUTROPHIL / NUCLEATED RED BLOOD CELLS / PLATELET COUNT: tissue Blood; for ALANINE AMINOTRANSFERASE / ALBUMIN / ALKALINE PHOSPHATASE / ASPARTATE AMINOTRANSFERASE / BLOOD UREA NITROGEN / CARBON DIOXIDE / CHLORIDE / CHOLESTEROL / CREATINE PHOSPHOKINASE / CREATININE / GLUCOSE / LACTATE DEHYDROGENASE / LIPASE / PHOSPHORUS / POTASSIUM / SODIUM / TOTAL BILIRUBIN / TOTAL PROTEIN / URIC ACID: tissue Plasma
# [1] = 0 mg/kg, 72 h, dose level Control, time 3 day
# [2] = 0 mg/kg, 120 h, dose level Control, time 5 day
# [3] = 5 mg/kg, 72 h, dose level Low, time 3 day
smiles,measurement,setting,value
"O=C(Nc1ccc(Cl)c(Cl)c1)c1cc(Cl)cc(Cl)c1O [3,3',4',5-TETRACHLOROSALICYLANILIDE]",ABSOLUTE BASOPHIL,[1],0 CELLS/uL
same,ABSOLUTE EOSINOPHIL,[1],0 CELLS/uL
same,ABSOLUTE LYMPHOCYTE,[1],11091.17 CELLS/uL
same,ABSOLUTE MONOCYTE,[1],172.17 CELLS/uL
same,ABSOLUTE SEGMENTED NEUTROPHIL,[1],1186.67 CELLS/uL
same,BASOPHIL,[1],0%
same,EOSINOPHIL,[1],0%
same,ERYTHROCYTE COUNT,[1],5.87 x10E6/uL
same,HEMATOCRIT,[1],36.87%
same,HEMOGLOBIN,[1],14.03 G/DL
same,LEUKOCYTE COUNT,[1],12.45 x10E3/uL
same,LYMPHOCYTE,[1],88.67%
same,MEAN CORPUSCULAR HEMOGLOBIN,[1],23.93 pg
same,MEAN CORPUSCULAR HEMOGLOBIN CONCENTRATION,[1],38.1 G/DL
same,MEAN CORPUSCULAR VOLUME,[1],62.73 fL
same,MONOCYTE,[1],1.5%
same,NEUTROPHIL,[1],9.83%
same,NUCLEATED RED BLOOD CELLS,[1],0 /100WBC
same,PLATELET COUNT,[1],1150.33 x10E3/uL
same,ALANINE AMINOTRANSFERASE,[1],67.17 u/L
same,ALBUMIN,[1],4.03 G/DL
same,ALKALINE PHOSPHATASE,[1],462.5 u/L
same,ASPARTATE AMINOTRANSFERASE,[1],88 u/L
same,BLOOD UREA NITROGEN,[1],13.17 mg/dL
same,CARBON DIOXIDE,[1],29.33 mmol/L
same,CHLORIDE,[1],101 MEQ/L
same,CHOLESTEROL,[1],69.17 mg/dL
same,CREATINE PHOSPHOKINASE,[1],292.5 u/L
same,CREATININE,[1],0.17 mg/dL
same,GLUCOSE,[1],167.5 mg/dL
same,LACTATE DEHYDROGENASE,[1],198.5 u/L
same,LIPASE,[1],10.67 u/L
same,PHOSPHORUS,[1],11.73 mg/dL
same,POTASSIUM,[1],5.91 MEQ/L
same,SODIUM,[1],143.3 MEQ/L
same,TOTAL BILIRUBIN,[1],0.18 mg/dL
same,TOTAL PROTEIN,[1],5.7 G/DL
same,URIC ACID,[1],1.3 mg/dL
same,ABSOLUTE BASOPHIL,[2],0 CELLS/uL
same,ABSOLUTE EOSINOPHIL,[2],64.33 CELLS/uL
same,ABSOLUTE LYMPHOCYTE,[2],12494.67 CELLS/uL
same,ABSOLUTE MONOCYTE,[2],117 CELLS/uL
same,ABSOLUTE SEGMENTED NEUTROPHIL,[2],1340.67 CELLS/uL
same,BASOPHIL,[2],0%
same,EOSINOPHIL,[2],0.33%
same,ERYTHROCYTE COUNT,[2],5.82 x10E6/uL
same,HEMATOCRIT,[2],36.97%
same,HEMOGLOBIN,[2],14.18 G/DL
same,LEUKOCYTE COUNT,[2],14.02 x10E3/uL
same,LYMPHOCYTE,[2],89%
same,MEAN CORPUSCULAR HEMOGLOBIN,[2],24.42 pg
same,MEAN CORPUSCULAR HEMOGLOBIN CONCENTRATION,[2],38.4 G/DL
same,MEAN CORPUSCULAR VOLUME,[2],63.52 fL
same,MONOCYTE,[2],0.83%
same,NEUTROPHIL,[2],9.83%
same,NUCLEATED RED BLOOD CELLS,[2],0 /100WBC
same,PLATELET COUNT,[2],1097.83 x10E3/uL
same,ALANINE AMINOTRANSFERASE,[2],58.83 u/L
same,ALBUMIN,[2],3.92 G/DL
same,ALKALINE PHOSPHATASE,[2],414.17 u/L
same,ASPARTATE AMINOTRANSFERASE,[2],89.17 u/L
same,BLOOD UREA NITROGEN,[2],16.83 mg/dL
same,CARBON DIOXIDE,[2],29.17 mmol/L
same,CHLORIDE,[2],100.33 MEQ/L
same,CHOLESTEROL,[2],54.5 mg/dL
same,CREATINE PHOSPHOKINASE,[2],386.17 u/L
same,CREATININE,[2],0.23 mg/dL
same,GLUCOSE,[2],184.17 mg/dL
same,LACTATE DEHYDROGENASE,[2],229.17 u/L
same,LIPASE,[2],10.83 u/L
same,PHOSPHORUS,[2],10.88 mg/dL
same,POTASSIUM,[2],5.97 MEQ/L
same,SODIUM,[2],142.2 MEQ/L
same,TOTAL BILIRUBIN,[2],0.12 mg/dL
same,TOTAL PROTEIN,[2],5.63 G/DL
same,URIC ACID,[2],1.55 mg/dL
same,ABSOLUTE BASOPHIL,[3],0 CELLS/uL
same,ABSOLUTE EOSINOPHIL,[3],173.67 CELLS/uL
same,ABSOLUTE LYMPHOCYTE,[3],11546 CELLS/uL
same,ABSOLUTE MONOCYTE,[3],53.33 CELLS/uL
same,ABSOLUTE SEGMENTED NEUTROPHIL,[3],1927 CELLS/uL
same,BASOPHIL,[3],0%
same,EOSINOPHIL,[3],1.33%
same,ERYTHROCYTE COUNT,[3],5.84 x10E6/uL
same,HEMATOCRIT,[3],36.37%
same,HEMOGLOBIN,[3],14.03 G/DL
same,LEUKOCYTE COUNT,[3],13.7 x10E3/uL
same,LYMPHOCYTE,[3],84%
same,MEAN CORPUSCULAR HEMOGLOBIN,[3],24.03 pg
same,MEAN CORPUSCULAR HEMOGLOBIN CONCENTRATION,[3],38.6 G/DL
same,MEAN CORPUSCULAR VOLUME,[3],62.27 fL
same,MONOCYTE,[3],0.33%
same,NEUTROPHIL,[3],14.33%
same,NUCLEATED RED BLOOD CELLS,[3],0 /100WBC
same,PLATELET COUNT,[3],1088.67 x10E3/uL
same,ALANINE AMINOTRANSFERASE,[3],64 u/L
same,ALBUMIN,[3],3.97 G/DL
same,ALKALINE PHOSPHATASE,[3],434.67 u/L
same,ASPARTATE AMINOTRANSFERASE,[3],108.33 u/L
same,BLOOD UREA NITROGEN,[3],14 mg/dL
same,CARBON DIOXIDE,[3],23 mmol/L
same,CHLORIDE,[3],102.33 MEQ/L
same,CHOLESTEROL,[3],66.33 mg/dL
same,CREATINE PHOSPHOKINASE,[3],588 u/L
same,CREATININE,[3],0.19 mg/dL
same,GLUCOSE,[3],171.67 mg/dL
same,LACTATE DEHYDROGENASE,[3],260 u/L
same,LIPASE,[3],9.67 u/L
same,PHOSPHORUS,[3],12.87 mg/dL
same,POTASSIUM,[3],6.31 MEQ/L
same,SODIUM,[3],141.93 MEQ/L
same,TOTAL BILIRUBIN,[3],0.13 mg/dL
same,TOTAL PROTEIN,[3],5.57 G/DL
same,URIC ACID,[3],1.83 mg/dL
